Assay: Plasma PK of capsules vs tablets in healthy human subjects, relative bioavailability
Type: in vivo
Settings: capsules and tablets
Method: Blood samples were collected at the planned time points from each patient and centrifuged. The plasma portion of each sample was then transferred to a K2EDTA tube, which was then shipped to a bioanalytical lab for concentration measurement using LC-MS/MS. The concentration data were then analyzed using Phoenix® WinNonlin software to obtain PK parameters. The obtained PK parameters were further summarized using analytical software.
Blood samples (approximately 5 mL each) were collected from human patients pre-dose and at various hourly time points post-dose. Plasma concentrations of H3B-6545 were determined using a validated high-performance liquid chromatography/tandem mass spectrometry (LC-MS/MS) method. The lower limit of quantification was 0.100 ng/mL.
The PK Analysis Set included subjects who received H3B-6545 drug product in capsules or tablets and had sufficient evaluable plasma concentration data to derive at least 1 primary PK parameter in each treatment. […]
Pharmacokinetic parameters of H3B-6545 were calculated using noncompartmental methods, using an appropriate model for plasma data and extravascular administration. The PK parameters included, but were not limited to, area under the curve to the time of the last quantifiable concentration (AUC0-t), maximum concentration (Cmax), and time at which the maximum concentration occurred (tmax). […]

For `CN(C)C(=O)/C=C/CNCCOc1ccc(/C(=C(/CC(F)(F)F)c2ccccc2)c2ccc3[nH]nc(F)c3c2)cn1` [H3B-6545, (E)-N,N-dimethyl-4-[2-[5-[(Z)-4,4,4-trifluoro-1-(3-fluoro-1H-indazol-5-yl)-2-phenylbut-1-enyl]pyridin-2-yl]oxyethylamino]but-2-enamide], which tolerability is on record?
The tolerability was “well-tolerated”.
